# Results taken from patent US9388215B2, “Compositions and methods of using islet neogenesis peptides and analogs thereof” (SHENZHEN HIGHTIDE BIOPHARMACEUTICAL, LTD., priority 2013, dated 2016).
# What was measured:
# [1] = Peptide stability in mouse plasma; type: in vitro ADME; conditions: 100 μg/mL, 37° C.; FIG. 3, 5, 14
# Experimental: (§1) The stability of peptides was also tested in mouse and human plasma. Briefly, a certain amount of peptides and eucatropine powder (positive control) was accurately weighed. Test compounds were dissolved in 50% methanol-water solution and diluted to 20 mg/mL, and eucatropine was dissolved in dimethylsulfoxide (DMSO) and diluted to 10 mM, as a stock solution. Eucatropine stock solution was diluted to 0.2 mM with DMSO as a working solution. A stop reagent was prepared containing 200 ng/mL midazolam and tolbutamide in acetonitrile. A volume of 300 μL of stop solution was added to each well of a 96-well deep-well plate placed on ice beforehand.
# (§2) For the stability studies, peptides and eucatropine were spiked into plasma respectively, mixed well, and then 100 μL of each mixture solution was transferred into the pre-cooled stop reagent as 0 time point sample. The remaining mixtures were incubated in a 37° C. water bath with shaking at 100 rpm (n=2). The final incubation concentration was 1 for eucatropine and 100 μg/mL for all test compounds.
# At desired time points, 100 μL of incubation mixture was transferred to the stop reagent to precipitate proteins. Samples were vortexed and centrifuged at RCF 5000×g for 10 minutes, and supernatant was transferred to a test plate. The samples were analyzed by LC-MS/MS.
# Slope was calculated by plotting the natural logarithm of the percentage of remaining amount of test compounds and time, and T1/2 was calculated in accordance with the following formula.
# For stability in mouse plasma, the incubation time was 0, 5, 15, 30 and 60 min for Peptide 1 and eucatropine; 0, 15, 30, 60, 120, 240 and 480 min for Peptide 12, Peptide 16 and Peptide 29.
# In another stability study in mouse plasma, the incubation time was 0, 30, 60 and 120 min for Peptide 2 and eucatropine; 0, 30, 60, 120, 240 and 960 min for Peptide 52 and Peptide 54.
# as §1, with “tested in rat, mouse and” for “tested in mouse and”
# as §2, with “was 1 μM for eucatropine” for “was 1 for eucatropine”
# For stability in mouse plasma, the incubation time was 0, 15, 30, 60 and 120 min for Peptide 1 and eucatropine; 0, 15, 30, 60, 120, and 240 min for Peptide 31.
# [2] = Pharmacokinetics in SD rats after single subcutaneous dose (Example X); type: in vivo, rat; conditions: plasma, sc, male Sprague-Dawley rat, subcutaneous, 25 mg/kg; for AUC(0-t): read-out: AUC(0-t); for AUC(0-inf): read-out: AUC(0-∞); for Cmax: read-out: Cmax
# Experimental: After 7 days acclimation, a total of 15 male Sprague-Dawley (SD) rats (body weight: 230 to 270 g) in good health from Sino-British SIPPR/BK Lab Animal Ltd, Shanghai, were used in the study. All peptides, Peptide 1, Peptide 12, Peptide 16, Peptide 29 or Peptide 31, were dissolved in sterile normal saline respectively to yield the desired final concentrations and were administered via single subcutaneous (sc) dose.
# Three animals in each group were used for blood collection at the time point of 5 min, 15 min, 30 min, 1 h, 2 h, 4 h, 6 h, 8 h and 24 h post-dose. Blood samples (approximately 400 μL) were collected and placed into tubes containing EDTA-K2 (dipotassium ethylene diamine tetraacetic acid) and centrifuged at 8000 rpm for 6 minutes at 4° C. to separate plasma from the samples. The resulting plasma was stored frozen at −80° C. until being analyzed.
# Plasma concentrations of peptides were determined using tandem mass spectrometry (LC-MS/MS) analysis. A non-compartmental module of WinNonlin® Professional 5.2 (Pharsight; St. Louis Mo.) was used to calculate PK parameters. AUC(0-t) represents area under the curve from the time of dosing to the time of the last observation, the AUC(0-∞) represents area under the curve from the time of dosing to infinity, and the Cmax represents maximum concentration detected.
# [3] = type: physicochemical; conditions: pH 5
# Experimental: Peptide stability in buffers was tested for INGAP-PP and selected analogs. 10 mg/mL of Peptide 1, Peptide 12, Peptide 16, Peptide 29 or Peptide 31 was dissolved in isotonic buffers with pH ranging from 4.0 to 8.0. […] Peptide 12 and Peptide 29 were stable in an isotonic phosphate buffer (pH 7.4) for more than 90 days at 4° C. (there was no sign of degradation at 90 days sample check point), and 60 days at 25° C.
# pancreatic islets = assay: Glucose-stimulated insulin secretion (GSIS) of isolated islets; type: cell-based, rat; conditions: 12.0 mM glucose; 10 μg/mL peptide or 100 nM GLP-1; 60 min; FIG. 8
# Experimental: The pancreases were procured from male adult Sprague-Dawley (SD) rats. After 7 days acclimation, the animals were sacrificed by cervical dislocation and the entire pancreas was removed and digested with collagenase to isolate islets. After digestion, islets were maintained at 37° C. in RPMI 1640 (Carlsbad Calif., USA) pH 7.4, containing 10% (v/v) fetal calf serum, 1% penicillin/streptomycin, and 10 mM glucose in a humid atmosphere (5% CO2/95% O2), without the addition of any compound (control), or with the addition of 100 nM glucagon like peptide-1 (GLP-1); or 10 μg/mL Peptide 1, Peptide 12, or Peptide 16, as summarized in Table 4 below. Cultured islets were rinsed in Krebs-Ringer bicarbonate buffer (KRB), pH 7.4, previously gassed with a mixture of CO2/O2 (5/95%), and pre-incubated in 1.0 ml of KRB containing 0.5% (w/v) BSA and 1.5 mM glucose at 37° C. for 45 min. After this period, groups of 5 islets were incubated in 0.6 ml KRB with the addition of 1.5 or 12.0 mM glucose, with or without the addition of peptides for 60 min. At the end of the incubation period, aliquots of the medium were collected for insulin quantitation.
AUC(0-t) [2] [ng·h/mL],AUC(0-inf) [2] [ng·h/mL],Cmax [2] [ng/mL],time stable in isotonic acetate buffer (pH 5.0) at 4° C. [3],time stable in isotonic acetate buffer (pH 5.0) at 25° C. [3],Substance,stability in mouse plasma [1],glucose-stimulated insulin release vs islets without peptide (pancreatic islets)
15600 ± 1530,15600 ± 1530,26000 ± 3100,up to 90 days,less than 7 days,"Ac-IGLHDPSHGTLPNGS-NH2 [Peptide 31, Ac-IGLHDPSHGTLPNGS-NH2]",exhibited good stability in mouse plasma and was more stable than INGAP-PP,
11200 ± 1880,11200 ± 1880,22100 ± 5870,up to 90 days,less than 7 days,"Ac-IGLHDPSHGTLPNGS-OH [Peptide 16, Ac-IGLHDPSHGTLPNGS-OH]",exhibited good stability in mouse plasma and were more stable than INGAP-PP,released significantly more insulin than those cultured without the addition of peptides
294 ± 125,298 ± 122,1190 ± 610,,,"H-IGLHDPSHGTLPNGS-OH [Peptide 1, H-IGLHDPSHGTLPNGS-OH, reference compound]",,no stimulation was observed
